# In patent US11485747B2, “Diphenylmethane protective agent” (priority 2016, dated 2022):
# Where a SMILES comes first, the peptide text is derived from it.
# Assay: physchem
# Assay type: physicochemical
# Procedure: Peptide used as model: H-Gly-Gly-Gly-NH2
# H-Gly-Gly-Gly-NH2 and H-Gly-Gly-Gly-NH-(TIPS2-Dpm) were synthesized, CPME (cyclopentyl methyl ether) was saturated with each of the compounds at 25° C., and the solubility was measured.
Structure (SMILES),solubility,increase in solubility
"NCC(=O)NCC(=O)NCC(N)=O [H-Gly-Gly-Gly-NH2, reference compound] (H-Gly-Gly-Gly-NH2)",0.039 mM,–
CC(C)[Si](OCCCCCCCCCCCOc1ccc(C(NC(=O)CNC(=O)CNC(=O)CN)c2ccc(OCCCCCCCCCCCO[Si](C(C)C)(C(C)C)C(C)C)cc2)cc1)(C(C)C)C(C)C [H-Gly-Gly-Gly-NH-(TIPS2-Dpm)],426 mM,"≥ 10,000 fold"
